Measurements: patent US5780489A, “Method for treating amyotrophic lateral sclerosis” (priority 1996, dated 1998)
Entries after “also recorded” stand apart in the source; their conditions may differ. Where two headings read alike, the source gives them in different places.

Key:
[1] = system: human cells; conditions: cited from earlier work
[2] = esterase activity absent in human plasma; cited from earlier work
[3] = by an esterase; cited from earlier work
[4] = system: rat cerebrospinal fluid (CSF); conditions: Shikama et al. 1995, cited from earlier work; for rate of uptake into rat cerebrospinal fluid: GSH versus GSH isopropyl ester
[5] = system: cellular ischemia; conditions: H Shikama et al., 1995; cited from earlier work
[6] = system: γ-glutamyl transpeptidase; conditions: proposed by Shikama et al.; cited from earlier work
[7] = system: cells; conditions: cited from earlier work
[8] = system: cells; conditions: Puri and Meister, 1983; cited from earlier work
[9] = Meister et al., 1986; cited from earlier work
[10] = Meister et al., 1986; cited from earlier work; remark: listed apart in the source
[11] = system: ALS patients; conditions: cited from earlier work; for survival in ALS (in words): human, in vivo
[12] = system: chronic organotypic spinal cord cultures; conditions: in vitro, after SOD1 anti-sense oligonucleotides; cited from earlier work
[13] = B Olsson et al., 1988; cited from earlier work
[14] = OTZ pharmacokinetics (plasma elimination and oral absorption); type: in vivo, human
Procedure: The synthesis of glutathione, an endogenous antioxidant, is often limited by the supply of intracellular cysteine, one of the component amino acids of glutathione. […] Some of these patients continued taking OTZ capsules (up to 9 grams/day) for over two years.
Subjects with ALS were enrolled in a tolerability, pharmacokinetics and pharmacodynamics study of OTZ in ALS patients. In this study, glutathione and cysteine levels in whole blood and CSF and OTZ pharmacokinetics were determined in ten to twenty subjects with ALS. Blood was obtained for baseline glutathione and cysteine levels. A spinal catheter was inserted and baseline CSF samples collected for determination of glutathione and cysteine levels. OTZ (90 ml 5% OTZ injection=4500 mg OTZ) was administered by intravenous infusion through a peripheral vein over 60±10 minutes. At various time points after the start of the OTZ infusion, blood and CSF samples were drawn for determination of OTZ and glutathione levels. The following day, subjects started taking OTZ capsules (3000 mg t.i.d.) for 28 days. After 7 and 14 days of treatment with OTZ capsules, blood was drawn for analyses of safety parameters, glutathione, cysteine and OTZ levels. On the last day of the treatment period, blood and CSF samples were drawn for analysis of OTZ, glutathione, and cysteine levels. The study endpoints were tolerability, and pharmacokinetic and pharmacodynamic data. Safety was determined by clinical history and examination, quantitative neuromuscular examination and a panel of safety laboratory tests. Nine subjects completed the study and samples are analyzed. In addition, CSF was drawn from patients without severe neurological disorders and the GSH levels are analyzed and compared to the levels for ALS patients.

[15] = adverse experiences; type: in vivo, human; conditions: only minor
From the text: The risk of any of these side effects occurring is small; however, should they occur, the dose of medication is reduced or discontinued entirely. However, OTZ is an experimental drug and unexpected side effects may occur.

[16] = system: patients with ALS; test: progression of ALS, phase II trial of OTZ and Riluzole versus Riluzole alone; type: in vivo, human; conditions: 9 months, 3000 mg p.o. t.i.d.
Procedure: 5.3. OTZ in ALS Patients: Phase II Trial
A phase II, bi-center, double-blind randomized controlled comparison trial of the efficacy of OTZ and the anti-glutamate agent, Riluzole, versus Riluzole alone in slowing of disease progression in patients with ALS (50 at each center) is performed. Patients receive treatment for 9 months. Riluzole is approved for marketing by the FDA.
The OTZ and placebo capsules are identical in appearance. Riluzole is administered as tablets obtained from the manufacturer. Riluzole is administered at 50 mg bid to all subjects. The OTZ dose is the same as used in the Phase I study, 3000 mg p.o. t.i.d. However, the final determination of OTZ dose may be modified. Half the subjects receive active OTZ capsules and the other half receive identical appearing placebo capsules.
The primary outcome measure is change in motor and pulmonary function after 9 months of experimental therapy as tested with the Tufts Quantitative Neuromuscular Exam ([…]) and FVC. The secondary outcome measure is based upon ALS Functional Rating Scores.
Analysis is done on an intention to treat basis. The primary analysis tests the difference in average slopes of arm megascores between the OTZ and Riluzole combination and Riluzole alone groups using a two-way ANOVA with treatment and center in the model, with a two-sided alpha=0.05. […]

[17] = system: GSH levels in rat brains; conditions: cited from earlier work
[18] = system: GSH levels in some cell types; conditions: Williamson et al. 1981; cited from earlier work
[19] = system: intracellular glutathione levels; conditions: cited from earlier work
[20] = system: 5-oxoprolinase; conditions: cited from earlier work
[21] = system: transgenic mice which overexpress the mutant SOD1 protein; conditions: small, but statistically significant; cited from earlier work
[22] = system: ALS patients; conditions: two controlled studies; cited from earlier work
[23] = system: glutamate release at pre-synaptic terminals; conditions: cited from earlier work
[24] = in vivo; cited from earlier work

Structure (SMILES): CCOC(=O)CNC(=O)[C@H](CS)NC(=O)CC[C@H](N)C(=O)OCC [GSH diethylester]
- entry into human cells [1]: even more efficiently transported into human cells than the monoester
- intracellular GSH levels in human cells [1]: increase of intracellular GSH levels
- stability in human blood [2]: stable in human blood
- conversion to monoethyl (glycyl) ester in rodent blood plasma [3]: readily converted to monoethyl (glycyl) ester in rodent blood plasma

Structure (SMILES): CC(C)OC(=O)CNC(=O)[C@H](CS)NC(=O)CC[C@H](N)C(=O)O [GSH isopropyl ester, glutathione isopropyl ester]
- rate of uptake into rat cerebrospinal fluid [4]: the same
- total GSH (sum of GSH and GSH ester) in rat CSF [4]: only the ester increased the total GSH
- stability in CSF ([4]; versus GSH): more stable that GSH in the CSF
- protection against cellular ischemia [5]: provide protection against cellular ischemia
- affinity for γ-glutamyl transpeptidase [6]: reduced affinity

Structure (SMILES): CCOC(=O)CNC(=O)[C@H](CS)NC(=O)CC[C@H](N)C(=O)O [GSH monoethylester]
- entry into human cells [1]: able to enter human cells
- intracellular GSH levels in human cells [1]: increase in GSH levels

Structure (SMILES): N[C@@H](CCC(=O)N[C@@H](CS)C(=O)NCC(=O)O)C(=O)O [GSH, L-γ-glutamyl-L-cysteinylglycine]
- rate of uptake into rat cerebrospinal fluid [4]: the same
- effect of administration on intracellular GSH levels ([7]; Meister, U.S. Pat. No. 4,879,370): has not led to increased intracellular GSH levels
- transport into cells [7]: not transported efficiently into cells; also recorded: not efficiently transported into most animal cells
- protection of cells against toxic compounds [8]: can protect some cells against toxic compounds

Structure (SMILES): N[C@@H](CS)C(=O)O [L-cysteine]
- transport into cells [7]: not transported efficiently into cells
- transport into cells ([7]; listed as cysteine): not efficiently transported into most animal cells
- oxidation at neutral pH [9]: oxidized spontaneously at neutral pH
- toxicity of high extracellular levels [10]: high extracellular levels of cysteine can be toxic

Structure (SMILES): CC(=O)N[C@@H](CS)C(=O)O [N-acetylcysteine (NAC), N-acetylcysteine]
- survival in ALS (in words) [11]: trend towards increasing survival in ALS patients
- reversal of death process in spinal cord cultures [12]: reversed
- bioavailability in human studies [13]: low bioavailability

Structure (SMILES): O=C1N[C@H](C(=O)O)CS1 [OTZ, L-2-oxothiazolidine-4-carboxylic acid]
- elimination from plasma ([14]; after oral or intravenous administration): rapidly eliminated from plasma
- absorption after oral administration ([14]; oral): readily absorbed after oral administration
- half-life ([14]; plasma, after oral or intravenous administration, read-out: T1/2 (elimination from plasma)): 1 to 2 h
- adverse experiences associated with OTZ [15]: stomach upset, dizziness, insomnia, nausea, restlessness and headache
- rate of progression of ALS [16]: slows the rate of progression of ALS
- GSH levels in rat brains ([17]; Anderson and Meister 1989): no effect or only slightly increased GSH levels
- level of GSH in rat brains ([17]; subcutaneous injections, Mesina et al. 1989): statistically significant increase in the level of GSH in rat brains
- increase of GSH levels in some cell types [18]: effective in increasing GSH levels in some cell types
- intracellular glutathione levels in animal models [19]: increases intracellular glutathione levels in animal models
- conversion to cysteine (enzyme required) [20]: requires the enzyme 5-oxoprolinase
- metabolism by 5-oxo-L-prolinase ([20]; in vitro, in the presence of adenosine triphosphate): subjected to the action of 5-oxo-L-prolinase in the presence of adenosine triphosphate to produce S-carboxyl cysteine

Structure (SMILES): Nc1nc2ccc(OC(F)(F)F)cc2s1 [Riluzole]
- prolongation of survival of ALS patients ([11]; G Bensimon et al., 1994): 12%
- survival in ALS (in words) [11]: extend survival in ALS; also recorded: improve survival in ALS; also recorded: small affect on survival
- prolongation of lifespan in patients with ALS ([11]; two studies, statistically significant, but small, G Bensimon et al., 1994): 18%
- prolongation of survival in transgenic SOD1 mutant mice [21]: 11%
- improvement in strength [22]: without a concomitant improvement in strength
- release of glutamates at pre-synaptic terminals [23]: inhibits release of glutamates at pre-synaptic terminals
- known adverse experiences associated with Riluzole therapy [24]: asthenia, fatigue and asymptomatic elevation of liver function tests
